Measurements: US20170044121A1, “TETRA-O-SUBSTITUTED BUTANE-BRIDGE MODIFIED NDGA DERIVATIVES, THEIR SYNTHESIS AND PHARMAECUTICAL USE” (Erimos Pharmaceuticals LLC, priority 2006, published 2017)
Structures can show the parent of a compound that is named as a salt. Where two headings read alike, the source gives them in different places.

Tests used:
A549 (lung carcinoma) = test: MTS cell viability assay, A549; assay type: cell-based
[1] = test system: HeLa (cervical adenocarcinoma); test: MTS cell viability assay, HeLa; assay type: cell-based; conditions: read-out: HeLa IC50
[2] = test system: TAT transactivation of the HIV-1 LTR promoter (TAT-TRS); test: cells; assay type: cell-based; conditions: Human immunodeficiency virus 1, COS-7, 48 h, read-out: SEAP EC50
COS-7 cells = test: MTT cytotoxicity in COS-7 cells (run with SEAP); assay type: cell-based, green monkey; conditions: Chlorocebus sabaeus, COS-7, read-out: COS-7 IC50
MCP-1 = MCP-1 protein production in TNF-α-treated primary human keratinocytes; assay type: cell-based; conditions: Keratinocyte, read-out: MCP-1 IC50
[3] = cited from earlier work
in vitro = conditions: human, Caco-2, pH 7.4, Papp mean A to B
Caco-2 cell monolayers [4] = conditions: human, Caco-2, 90 min, 50 μM, pH 7.4
Caco-2 cell monolayers [5] = conditions: Caco-2 test system, historical values; cited from earlier work
[6] = Homo sapiens, A549, read-out: A549 IC50

Compound `COc1ccc(CCCCc2ccc(OC)c(OC)c2)cc1OC` [Compound A, 1,4-bis-(3,4-methoxyphenyl) butane] has an IC50 (A549 (lung carcinoma); [6]) of over 100 µM, an IC50 ([1]; Homo sapiens, HeLa) of over 100 µM and an EC50 [2] of over 100 µM. It also gave an IC50 (COS-7 cells) of over 100 µM and an IC50 (MCP-1) of over 100 µM.
For `c1cc(OCCCN2CCCCC2)c(OCCCN2CCCCC2)cc1CCCCc1ccc(OCCCN2CCCCC2)c(OCCCN2CCCCC2)c1` [Compound E, 1,4-bis{3,4-bis[3-(piperidin-1-yl)propoxy]phenyl}-butane tetrakis-hydrochloride salt], the IC50 (A549 (lung carcinoma); MTS assay, read-out: A549 IC50) was 9 µM and the IC50 ([1]; MTS assay) was 5 to 10 µM.
For `COc1ccc(C[C@@H](C)[C@@H](C)Cc2ccc(OC)c(OC)c2)cc1OC` [Compound M4N, (tetra-O-methyl)nordihydroguaiaretic acid], the water solubility [3] is given as “poor”.
For `OC[C@@H](O)[C@@H](O)[C@H](O)[C@H](O)CO` [mannitol, reference compound], the Papp A→B at 90 min, 50 μM (in vitro) was 0.514 ×10⁻⁶ cm/s and the “Mass balance mean A to B” value (Caco-2 cell monolayers [4]) was 96%.
Compound `Cc1nc(COc2ccc(CCCCc3ccc(OCc4csc(C)n4)c(OCc4csc(C)n4)c3)cc2OCc2csc(C)n2)cs1` (as salt: hydrochloride) [Compound G, 1,4-bis{3,4-bis(2-methyl-thiazol-4-yl-methoxy)phenyl}-butane tetrakis-hydrochloride salt] has a melting point of 96 to 98 °C.
`CN1CCN(CCOc2ccc(CCCCc3ccc(OCCN4CCN(C)CC4)c(OCCN4CCN(C)CC4)c3)cc2OCCN2CCN(C)CC2)CC1` [Compound F, 1,4-bis{3,4-bis[2-(1-methyl-piperazin-4-yl)-ethoxy]phenyl}-butane] gave an IC50 (A549 (lung carcinoma); [6]) of over 100 µM and an IC50 ([1]; Homo sapiens, HeLa) of over 100 µM.
In the case of `CC(C)NCC(O)COc1cccc2ccccc12` (stereo not shown) [propranolol, reference compound], the “Papp historical range at the testing facility (mean ± SD)” value (Caco-2 cell monolayers [5]) is given as 1.5×10^−5±4.2×10^−5, the Papp A→B at 90 min, 50 μM (in vitro) is given as 14.2 ×10⁻⁶ cm/s and the “Mass balance mean A to B” value (Caco-2 cell monolayers [4]) is given as 71%.
